The values below come from paper PMC9694926, “Novel Uracil-Based Inhibitors of Acetylcholinesterase with Potency for Treating Memory Impairment in an Animal Model of Alzheimer’s Disease” (Molecules, 2022).

For data set [1], the target named is T1, hAChE (Homo sapiens, UniProt P22303).
T1 construct: purchased Sigma-Aldrich
To be noted: cited from earlier work; for IC50: human AChE.

Data set [2] deals with T2, hBChE (Homo sapiens, UniProt P06276).
T2 construct: hBChE from blood plasma; purchased Sigma-Aldrich; host or cells: human blood plasma
T2 sequence (P06276 29-602): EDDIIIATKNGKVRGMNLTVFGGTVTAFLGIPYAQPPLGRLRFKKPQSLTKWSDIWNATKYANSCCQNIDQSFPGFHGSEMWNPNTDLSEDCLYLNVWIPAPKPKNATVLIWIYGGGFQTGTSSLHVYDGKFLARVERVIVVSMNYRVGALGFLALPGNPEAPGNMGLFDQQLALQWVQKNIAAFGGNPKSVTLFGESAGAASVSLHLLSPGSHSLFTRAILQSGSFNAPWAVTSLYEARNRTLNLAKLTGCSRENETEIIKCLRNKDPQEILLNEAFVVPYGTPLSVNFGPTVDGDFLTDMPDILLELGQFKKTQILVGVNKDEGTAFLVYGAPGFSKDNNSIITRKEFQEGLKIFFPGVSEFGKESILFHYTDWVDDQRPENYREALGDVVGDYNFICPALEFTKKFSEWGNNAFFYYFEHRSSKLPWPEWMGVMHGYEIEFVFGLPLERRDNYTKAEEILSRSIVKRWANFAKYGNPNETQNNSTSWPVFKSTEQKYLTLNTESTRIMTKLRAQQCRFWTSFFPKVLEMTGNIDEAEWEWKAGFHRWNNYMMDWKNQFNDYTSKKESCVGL
To be noted: cited from earlier work.

The test system of data set [3] is CD1 mice. To be noted: i.p. injection, cited from earlier work.
Data set [4] addresses T1, hAChE. The data set is described as follows: biochemical. The class given is biochemical. To be noted: for AChE Selectivity: (IC50 BChE)/(IC50 AChE); for IC50: human AChE, acetylthiocholine 1 mM, mean of three independent measurements. The procedure:
(§1) The inhibitory potency of compounds against hAChE and hBChE was studied using Ellman’s method. Acetylthiocholine iodide (ATC), butyrylthiocholine iodide (BTC), recombinant hAChE, hBChE from blood plasma, and 5,5′-dithio-bis-(2-nitrobenzoic) acid (DTNB) were purchased from Sigma-Aldrich (Sigma-Aldrich, St. Louis, MO, USA). Stock solutions of compounds (0.01 M) were prepared using ethanol or water. In the case of compounds soluble in ethanol, the final concentration of ethanol in the cuvette was 0.1% vol. […] The enzyme-catalyzed reaction of hydrolysis was carried out in 0.1 M phosphate buffer at pH 8.0 containing 0.25 units of hAChE or hBChE and 1 mM ATC or BTC as substrates. The tested compounds were pre-incubated with the enzyme for 5 min at 25 °C prior to the addition of the substrate and the commencement of hydrolysis kinetics recording. Experiments were performed in triplicate. […] The sample without substrate was used as a blank. The sample without inhibitor was used as a control (in a solution of 0.1% vol. ethanol in the case of compounds soluble in ethanol). Percentage of AChE/BChE inhibition was determined by comparison of rates of reaction of test samples relative to the control sample. The percentage of inhibition as a function of compound concentration was plotted using OriginPro 8.5 software (OriginLab Corporation, Northampton, MA, USA).

The nature of data set [5]: Acute toxicity (LD50), intraperitoneal injection. The class given is in vivo. To be noted: CD1, mouse, in vivo, ip; mice, i.p. injection. The procedure: (§2) All experiments involving animals were performed in accordance with the guidelines set out by the European Union Council Directive 2010/63/EU; the experimental protocols were approved by the Animal Care and Use Committee of the Federal Research Center “Kazan Scientific Center of the Russian Academy of Sciences”. Toxicological experiments were performed using intraperitoneal injection of the various compounds in CD1 mice weighing 20–25 g. Mice were maintained on a 12 h light/dark cycle (light from 7:00 a.m. to 7:00 p.m.) at 20−22 °C and 60−70% relative humidity. Five different doses (determined during preliminary tests) were used with six animals per dose. Animals were observed 14 days after injection, and symptoms of intoxication were recorded. […] LD50 was determined by the method of Weiss. Stock solutions of compounds were prepared in ethanol or water. Compounds were administered intraperitoneally in sterile physiological saline. The concentration of ethanol in physiological saline was 5% vol.

Data set [6] deals with T2, hBChE. The data set is described as follows: biochemical. To be noted: butyrylthiocholine 1 mM, mean of three independent measurements. How it is done:
as §1

Data set [7] relates to scopolamine-induced amnesia in mice. The data set is described as follows: T-maze spatial memory test in scopolamine-induced amnesia model. The class given is in vivo, CD1 mice. To be noted: scopolamine 2 mg/kg i.p.; 1 mg/kg p.o. daily. How it is done:
During the first set of in vivo experiments, the ability of compound 2c to reverse the scopolamine-induced amnesia in mice was studied by means of behavioral testing in a T-maze. The percentages of correct choices and mice reaching the criterion of learning were evaluated along with the dynamic of reaching the criterion of learning. Amnesia was caused by intraperitoneal administration of scopolamine (2 mg/kg) 40 min prior to testing. […]. The control group of mice was treated with saline. The behavior of mice was observed within 18 days (Figure 6A).
Scopolamine, representing a muscarinic acetylcholine receptor antagonist, produces a transient receptor blockade and cognitive deficits, which can be considered as a model of AD [28]. CD1 mice were randomly divided into 5 groups (n = 8–10): control group of mice treated with saline; mice injected with a water solution of scopolamine (2 mg/kg, i.p.) at 40 min before testing; […]. Drugs were administered over 18 days.
A reward alternation task was used to assess spatial memory performance in T-maze (OpenScience, Moscow, Russia) as previously described. Briefly, prior to commencing T-maze testing, mice were placed on a food-deprivation schedule over 3 days. […] The percentages of correct choices and mice reaching the criterion of learning were evaluated along with the dynamic of reaching the criterion of learning.

For data set [8], the system named is APP/PS1 mice. To be noted: 1 mg/kg p.o. daily.
Description: Wild-type and APP/PS1 saline treated mice were employed as negative and positive controls, respectively. The behavior of mice in the T-maze was observed within 18 days (Figure 7A).
Mice were assigned to four groups (n = 8–10). […] APP/PS1 mice and their wild-type non-transgenic littermates that received saline were used as positive and negative controls.
A reward alternation task was used to assess spatial memory performance in T-maze (OpenScience, Moscow, Russia) as previously described [32, 33]. Briefly, prior to commencing T-maze testing, mice were placed on a food-deprivation schedule over 3 days. On the fourth day, mice were placed in the start arm of the T-maze and made it possible to move freely. Over the next 14 days of testing, mice were given 6 pairs of training trials. In the first trial of each pair (forced trial), one of the goal arm guillotine doors was closed and the mouse was constrained to selecting the opposite arm. The mouse was returned to the start box 15–20 s after consuming the reward (diluted sweetened condensed milk). In the second (free choice) trial, both goal arm doors were opened, the arm opposite the one selected in the forced trial was baited. […] The percentages of correct choices and mice reaching the criterion of learning were evaluated along with the dynamic of reaching the criterion of learning.
A short description of data set [9]: Solubility in water.
The subject of data set [10] is CD1 mice. The data set is described as follows: Acute toxicity (LD50), intraperitoneal injection. To be noted: i.p. injection. The class given is in vivo. How it is done:
as §2

Molecules are shown by their SMILES. Counter-ions that a name gives are not always drawn. Like-named read-outs stand apart in the source and are kept apart here.

T1 sequence (P22303 32-614): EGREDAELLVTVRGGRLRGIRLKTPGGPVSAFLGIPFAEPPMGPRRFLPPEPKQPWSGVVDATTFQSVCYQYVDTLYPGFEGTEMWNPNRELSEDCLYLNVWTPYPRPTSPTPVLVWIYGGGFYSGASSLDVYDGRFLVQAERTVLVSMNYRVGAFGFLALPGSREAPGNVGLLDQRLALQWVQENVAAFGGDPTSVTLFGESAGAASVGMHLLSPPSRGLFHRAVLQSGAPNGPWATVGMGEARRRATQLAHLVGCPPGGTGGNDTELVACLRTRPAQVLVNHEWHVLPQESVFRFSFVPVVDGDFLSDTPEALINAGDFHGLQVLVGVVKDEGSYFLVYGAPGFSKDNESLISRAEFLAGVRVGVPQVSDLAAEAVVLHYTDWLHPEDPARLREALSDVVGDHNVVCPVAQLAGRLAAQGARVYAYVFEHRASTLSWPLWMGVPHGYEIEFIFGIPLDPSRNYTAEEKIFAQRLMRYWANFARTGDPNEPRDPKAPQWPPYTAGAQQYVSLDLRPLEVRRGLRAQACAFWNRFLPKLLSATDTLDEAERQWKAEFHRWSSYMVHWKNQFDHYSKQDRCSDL

Regarding `CCN(CCCCCn1c(C)cc(=O)n(CCCCCN(CC)Cc2ccccc2[N+](=O)[O-])c1=O)Cc1ccccc1[N+](=O)[O-]` [1a], the “AChE Selectivity” value in data set [1] ((IC50 BChE)/(IC50 AChE), ref [12]) is reported as 10,000. Besides, the results for the IC50 in [1] (ref [12]) and in [2] (ref [12]) were 0.0035 ± 0.0003 µM and 35 µM, respectively. Moreover, the LD50 in [3] (ref [12]) was 51 mg/kg.

For `CCN(CCCCCn1c(C)cc(=O)n(CCCCCN(CC)Cc2ccccc2C(F)(F)F)c1=O)Cc1ccccc1C(F)(F)F` [1b], the IC50 in data set [1] (ref [12]) is 0.0056 ± 0.0007 µM; in data set [2] (ref [12]) it was 20 µM. Further, the median lethal dose (LD50) in data set [3] (ref [12]) is reported as 49 mg/kg.

Take `CCN(CCCCCn1c(C)cc(=O)n(CCCCCN(CC)Cc2ccccc2C#N)c1=O)Cc1ccccc1C#N` [1c]: the half-maximal inhibitory concentration (IC50) in data set [1] (ref [14]) is 0.0073 ± 0.0006 µM; in [2] (ref [14]) it was 100 µM. Besides, in data set [3] (ref [14]), the 50% lethal dose (LD50) is recorded as 138 mg/kg.

As for `CCN(CCCn1c(C)cc(=O)n(CCCN(CC)Cc2cccc(C(=O)OC)c2)c1=O)Cc1cccc(C(=O)OC)c1` [2a, 1,3-Bis[3-(meta-methoxycarbonylbenzylethylamino)propyl]-6-methyluracil], the “AChE Selectivity” value in data set [4] stood at 0.08. Also, the IC50 amounted to 210 µM in data set [4] and 16 µM in data set [6]. This molecule also gave a 50% lethal dose (LD50) at 14 days in data set [5] of 170 mg/kg.

As to `CCN(CCCCn1c(C)cc(=O)n(CCCCN(CC)Cc2cccc(C(=O)OC)c2)c1=O)Cc1cccc(C(=O)OC)c1` [2b, 1,3-Bis[4-(meta-methoxycarbonylbenzylethylamino)butyl]-6-methyluracil], in data set [4], the “AChE Selectivity” value was 722 and the concentration for half-maximal inhibition (IC50) is 0.027 ± 0.003 µM. This molecule also gave a median lethal dose (LD50) at 14 days in data set [5] of 120 mg/kg. Also, in [6], it took 19.5 µM to reach half-maximal inhibition (IC50).

Regarding `CCN(CCCCCCn1c(C)cc(=O)n(CCCCCCN(CC)Cc2cccc(C(=O)OC)c2)c1=O)Cc1cccc(C(=O)OC)c1` [2d, 1,3-Bis[6-(meta-methoxycarbonylbenzylethylamino)hexyl]-6-methyluracil], in [4], the “AChE Selectivity” value stood at 285 and the IC50 stood at 0.0047 ± 0.00017 µM. Moreover, in [5], the 50% lethal dose (LD50) at 14 days worked out at 47.5 mg/kg. Further, the IC50 in data set [6] was determined as 1.34 ± 0.33 µM.

On to `CCN(CCCCCn1c(C)cc(=O)n(CCCCCN(CC)Cc2cccc(C(=O)[O-])c2)c1=O)Cc1cccc(C(=O)[O-])c1.[Na+].[Na+]` [2e, 1,3-Bis[5-((meta-methylbenzoate)ethylamino)pentyl]-6-methyluracil disodium salt], for which, in [4], the “AChE Selectivity” value is 1.6 × 10^6 and inhibition was half-maximal at 0.013 ± 0.001 µM (IC50). This molecule also yielded a median lethal dose (LD50) at 14 days in [5] of 170 mg/kg. Also, the IC50 in data set [6] was roughly 21000 µM.

For the molecule `CCN(CCCCn1c(C)cc(=O)n(CCCCN(CC)Cc2ccc(C(=O)OC)cc2)c1=O)Cc1ccc(C(=O)OC)cc1` [3a, 1,3-Bis[4-(para-methoxycarbonylbenzylethylamino)butyl]-6-methyluracil], in data set [4], the “AChE Selectivity” value is 39 and the 50% inhibitory concentration (IC50) worked out at 3.3 ± 0.58 µM. In data set [5], this molecule yielded a median lethal dose (LD50) at 14 days of 51 mg/kg. Moreover, in data set [6], the 50% inhibitory concentration (IC50) was 128 µM.

As to `CCN(CCCCCn1c(C)cc(=O)n(CCCCCN(CC)Cc2ccc(C(=O)OC)cc2)c1=O)Cc1ccc(C(=O)OC)cc1` [3b, 1,3-Bis[5-(para-methoxycarbonylbenzylethylamino)pentyl]-6-methyluracil], in [4], the “AChE Selectivity” value was 355.5 and the IC50 was found to be 0.768 ± 0.08 µM. Further, in data set [5], the median lethal dose (LD50) at 14 days worked out at 188 mg/kg. Inhibition in data set [6] was half-maximal at 273 µM (IC50).

As for `CCN(CCCCCCn1c(C)cc(=O)n(CCCCCCN(CC)Cc2ccc(C(=O)OC)cc2)c1=O)Cc1ccc(C(=O)OC)cc1` [3c, 1,3-Bis[6-(para-methoxycarbonylbenzylethylamino)hexyl]-6-methyluracil], in data set [4], the “AChE Selectivity” value was 2218 and 0.027 ± 0.007 µM corresponded to half-maximal inhibition (IC50). Also, the “selectivity against AChE lower compared to compound 2c” value in data set [4] (AChE vs BChE) is “more than 15 times”. This molecule also had an LD50 at 14 days in data set [5] of 87 mg/kg. The molecule also came in with a half-maximal inhibitory concentration (IC50) in data set [6] of 59.9 µM.

With `CCN(CCCCCn1c(C)cc(=O)n(CCCCCN(CC)Cc2ccc(C(=O)[O-])cc2)c1=O)Cc1ccc(C(=O)[O-])cc1.[Na+].[Na+]` [3d, 1,3-Bis[5-((para-methylbenzoate)ethylamino)pentyl]-6-methyluracil disodium salt], the figures for the IC50 in [4] and in [6] were 0.0046 ± 0.0004 µM and greater than 100000 µM, respectively. The molecule further gave an LD50 at 14 days in data set [5] of 168 mg/kg.

Consider `CCN(CCCCn1c(=O)c2ccccc2n(CCCCN(CC)Cc2cccc(C(=O)OC)c2)c1=O)Cc1cccc(C(=O)OC)c1` [4a, 1,3-Bis[4-(meta-methoxycarbonylbenzylethylamino)butyl]-quinazoline-2,4-dione], for which, in [4], the “AChE Selectivity” value turned out to be 7 and inhibition was half-maximal at 0.46 ± 0.095 µM (IC50). This molecule also showed a 50% lethal dose (LD50) at 14 days in [5] of 120 mg/kg. This molecule also showed a 50% inhibitory concentration (IC50) in [6] of 3.16 ± 0.39 µM.

For the molecule `CCN(CCCCCn1c(=O)c2ccccc2n(CCCCCN(CC)Cc2cccc(C(=O)OC)c2)c1=O)Cc1cccc(C(=O)OC)c1` [4b], the “AChE Selectivity” value in [4] came to 8.2. Also, the half-inhibitory concentration (IC50) in data set [4] came to 0.29 ± 0.042 µM; in data set [6] it was 2.38 ± 0.49 µM. In data set [5], this molecule yielded an LD50 at 14 days of 93 mg/kg.

Consider `COc1cc2c(cc1OC)C(=O)C(CC1CCN(Cc3ccccc3)CC1)C2` (centres unmarked) [Donepezil, donepezil hydrochloride], for which, in data set [7], the “percentage of correct choices in T-maze” value was found to be 66.78 ± 2.62% and the “percentage of mice reaching the criterion of learning by day 14” value is on record as 80%. Also, in [8], the “percentage of correct choices in T-maze” value is recorded as 67.46 ± 2.35% and the “percentage of mice reaching the criterion of learning” value was 50%.

In the case of `CCN(CCCCCn1c(C)cc(=O)n(CCCCCN(CC)Cc2cccc(C(=O)OC)c2)c1=O)Cc1cccc(C(=O)OC)c1` [compound 9], the solubility in water result in data set [9] is given as “water-soluble”. In addition, the LD50 in data set [10] worked out at 96 mg/kg.

Usually IC50 stands for the concentration that inhibits the measured activity by half. Usually LD50 stands for the dose at which mortality reaches 50%.
